One may read the IC50 as the concentration that inhibits the measured activity by half. Read a low IC50 as greater potency.

The target of this test is T1, BACE-1 enzyme (Homo sapiens, UniProt P56817).
T1 construct: purchased R & D Systems 931AS
T1 sequence (P56817 46-457 limits assumed): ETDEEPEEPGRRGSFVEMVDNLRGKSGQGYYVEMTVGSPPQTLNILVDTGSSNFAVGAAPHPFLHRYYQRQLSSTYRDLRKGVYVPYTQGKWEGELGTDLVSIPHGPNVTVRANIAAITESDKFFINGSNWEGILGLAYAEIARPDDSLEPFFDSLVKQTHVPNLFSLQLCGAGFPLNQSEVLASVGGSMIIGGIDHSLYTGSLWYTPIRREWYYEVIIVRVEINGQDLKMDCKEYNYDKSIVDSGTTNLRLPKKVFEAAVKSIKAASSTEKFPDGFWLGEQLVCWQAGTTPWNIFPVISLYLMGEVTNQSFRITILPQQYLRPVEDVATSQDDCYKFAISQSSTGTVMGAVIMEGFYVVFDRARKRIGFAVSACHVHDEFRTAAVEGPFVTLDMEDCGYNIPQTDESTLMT
Briefly: BACE Fluorescence Resonance Energy Transfer (FRET) Assay. It is filed as biochemical. The conditions noted are these: pH 4-4.5, 30 min pre-incubation, about 1.5 hours reaction, asterisk = mean. On the procedure: BACE Fluorescence Resonance Energy Transfer (FRET) Assay
In the following assay, the proteolytic activity of BACE is measured by observing cleavage of a fluorescent group from a peptide substrate containing a rhodamine fluorescent donor and a quenching acceptor.
The inhibitory activity of compounds of Formula (I) may be compared to a statine derived control inhibitor STA200 (MP Biomedical Cat. #STA-200). The cleavage reaction occurs when a BACE-1 substrate (Invitrogen, Cat. #P2986) was added to a reaction mixture containing BACE-1 enzyme (R & D Systems, Cat. #931AS) and allowed to proceed for about 1.5 hours. Fluorescence, used as a marker of BACE activity, is monitored using 540 nm excitation and 585 nm emission wavelengths (Envision, Perkin Elmer).
A typical assay reaction contains BACE-1 enzyme-in assay buffer (50 mM sodium acetate, pH 4-4.5, 0.01% CHAPS (3-[(3-Cholamidopropyl)dimethylammonio]-1-propanesulfonate), 0.0125% TritonX-100, 0.006% EDTA) which is pre-incubated for 30 minutes with test compound in 7.5% DMSO. The reaction is initiated with the addition of BACE-1 substrate in assay buffer and allowed to proceed for about 1.5 hours at room temperature. Assays are conducted in black 384-well microtiter plates and scanned at room temperature using 540 nm excitation and 585 nm emission wavelengths.
In some instances, the percent inhibition at a given concentration is reported instead of the IC50.
Molecule `COCCOc1ccc2nc(C(=O)Nc3nc4cc(-c5ccc(Cl)c(C(F)(F)F)c5)ccc4[nH]3)cn2n1` [Example 62] yielded a half-maximal inhibitory concentration (IC50) of 0.335 µM. In turn, `O=C(Nc1nc2cc(-c3cc(F)cc(Cl)c3)ccc2[nH]1)c1cn2nc(OCCNC3CCCCC3)ccc2n1` [Example 51] gave an IC50 of 0.173 µM.

`O=C(Nc1nc2cc(-c3cccc(OC(F)(F)F)c3)ccc2[nH]1)c1cn2nc(OCCN3CCCCCC3)ccc2n1` [Example 34] registered an IC50 of 0.27 µM. This IC50 lies about 1.6-fold higher than the previous one. The molecule `O=C(Nc1nc2cc(C3CCCC3)ccc2[nH]1)c1cn2nc(N3CC[C@@H](O)C3)ccc2n1` [Example 95] yielded an IC50 of 0.431 µM. `CN(C)CCOc1ccc2nc(C(=O)Nc3nc4cc(-c5ccc(Cl)c(C(F)(F)F)c5)ccc4[nH]3)cn2n1` [Example 63] returned an IC50 of 0.361 µM.

In turn, `N[C@H]1CCN(c2ccc3nc(C(=O)Nc4nc5cc(-c6cccc(C(F)(F)F)c6)ccc5[nH]4)cn3n2)C1` [Example 77] yielded an IC50 of 0.242 µM. The IC50 values of the last two molecules are within 1.5-fold of each other. As to `CN(C)CCCOc1ccc2nc(C(=O)Nc3nc4cc(-c5cc(F)cc(Cl)c5)ccc4[nH]3)cn2n1` [Example 17], the IC50 came out at 0.171 µM. `CC(C)OCCOc1ccc2nc(C(=O)Nc3nc4cc(-c5cccc(C(F)(F)F)c5)ccc4[nH]3)cn2n1` [Example 23] yielded an IC50 of 0.272 µM. For `CN(C)CCN(C)CCOc1ccc2nc(C(=O)Nc3nc4cc(-c5cccc(OC(F)(F)F)c5)ccc4[nH]3)cn2n1` [Example 36] the value was 0.332 µM. For `CNCCOc1ccc2nc(C(=O)Nc3nc4cc(-c5cc(F)cc(Cl)c5)ccc4[nH]3)cn2n1` [Example 14] the value was 0.152 µM; for `COCCOc1ccc2nc(C(=O)Nc3nc4cc(-c5cccc(C(F)(F)F)c5)ccc4[nH]3)cn2n1` [Example 8, 6-(2-Methoxy-ethoxy)-imidazo[1,2-b]pyridazine-2-carboxylic acid [5-(3-trifluoromethyl-phenyl)-1H-benzoimidazol-2-yl]-amide], 0.28 µM. Consider `CC(C)N(CCOc1ccc2nc(C(=O)Nc3nc4cc(-c5cccc(C(F)(F)F)c5)ccc4[nH]3)cn2n1)C(C)C` [Example 42], for which the IC50 came out at 0.365 µM. For `O=C(Nc1nc2cc(-c3cccc(OC(F)(F)F)c3)ccc2[nH]1)c1cn2nc(OCCN3CCCC3)ccc2n1` [Example 21] the value was 0.318 µM.

In turn, `CO[C@@H]1CCN(c2ccc3nc(C(=O)Nc4nc5cc(C6CCC(C)(C)CC6)ccc5[nH]4)cn3n2)C1` [Example 89] gave an IC50 of 0.16 µM. With `CN1CCC[C@H]1COc1ccc2nc(C(=O)Nc3nc4cc(-c5cc(F)cc(Cl)c5)ccc4[nH]3)cn2n1` [Example 68] the figure was 0.344 µM; with `C[C@H](N)COc1ccc2nc(C(=O)Nc3nc4cc(-c5cccc(C(F)(F)F)c5)ccc4[nH]3)cn2n1` [Example 74], 0.219 µM; with `COC1CCN(c2ccc3nc(C(=O)Nc4nc5cc(C6CCC(C)(C)CC6)ccc5[nH]4)cn3n2)CC1` [Example 87], 0.56 µM. With `CC(C)(C)NCCOc1ccc2nc(C(=O)Nc3nc4cc(-c5cc(F)cc(Cl)c5)ccc4[nH]3)cn2n1` [Example 52] the figure was 0.223 µM. For `COc1ccc2nc(C(=O)Nc3nc4cc(OCc5ccccc5)ccc4[nH]3)cn2n1` [Example 4] the value was 0.105 µM; for `CN1CCC(Oc2ccc3nc(C(=O)Nc4nc5cc(-c6cc(F)cc(Cl)c6)ccc5[nH]4)cn3n2)CC1` [Example 18], 0.219 µM; for `CN(C)CCOc1ccc2nc(C(=O)Nc3nc4cc(-c5cc(F)cc(Cl)c5)ccc4[nH]3)cn2n1` [Example 15], 0.272 µM. Regarding `CC1CCC(c2ccc3[nH]c(NC(=O)c4cn5nc(N6CCOCC6)ccc5n4)nc3c2)CC1` (stereo not shown) [Example 81], the midpoint of inhibition, the IC50, lay at 0.393 µM. This IC50 and that of the molecule before are within 1.5-fold of each other. With `CO[C@H]1CCN(c2ccc3nc(C(=O)Nc4nc5cc(-c6ccc(C)s6)ccc5[nH]4)cn3n2)C1` [Example 91] the figure was 2.34 µM.

The molecule `O=C(Nc1nc2cc(-c3cccc(C(F)(F)F)c3)ccc2[nH]1)c1cn2nc(OCCN3CCCC3)ccc2n1` [Example 71] had an IC50 of 0.327 µM. For `CN(CCOc1ccc2nc(C(=O)Nc3nc4cc(-c5cccc(C(F)(F)F)c5)ccc4[nH]3)cn2n1)c1ccccn1` [Example 44] the value was 0.241 µM; for `CC1(C)CCC(c2ccc3[nH]c(NC(=O)c4cn5nc(C6CCNCC6)ccc5n4)nc3c2)CC1` [Example 82], 1.07 µM. Turning to `C[C@@H](N)COc1ccc2nc(C(=O)Nc3nc4cc(-c5cccc(C(F)(F)F)c5)ccc4[nH]3)cn2n1` [Example 73], it took 0.346 µM to reach half-maximal inhibition (IC50). With `O=C(O)COc1ccc2nc(C(=O)Nc3nc4cc(-c5cccc(C(F)(F)F)c5)ccc4[nH]3)cn2n1` [Example 97] the figure was 0.161 µM. For `O=C(Nc1nc2cc(-c3cccc(C(F)(F)F)c3)ccc2[nH]1)c1cn2nc(N3CCNCC3)ccc2n1` [Example 80] the value was 0.2 µM. For `CN1CCN(CCOc2ccc3nc(C(=O)Nc4nc5cc(-c6cc(F)cc(Cl)c6)ccc5[nH]4)cn3n2)CC1` [Example 55] the value was 0.212 µM; for `CN(C)CCOCCOc1ccc2nc(C(=O)Nc3nc4cc(-c5cccc(OC(F)(F)F)c5)ccc4[nH]3)cn2n1` [Example 56], 0.176 µM. `O=C(Nc1nc2cc(-c3cccc(OC(F)(F)F)c3)ccc2[nH]1)c1cn2nc(OCCNC3CCCCC3)ccc2n1` [Example 33] yielded an IC50 of 0.278 µM. For `CN(C)CC(O)COc1ccc2nc(C(=O)Nc3nc4cc(-c5cccc(C(F)(F)F)c5)ccc4[nH]3)cn2n1` (stereo not shown) [Example 110] the value was 0.268 µM. Molecule `O=C(Nc1nc2cc(-c3cccc(C(F)(F)F)c3)ccc2[nH]1)c1cn2nc(O[C@H]3CCCNC3)ccc2n1` [Example 75] registered an IC50 of 0.36 µM. This IC50 and that of the molecule before are within 1.5-fold of each other.

Consider `O=C(O)CCNc1ccc2nc(C(=O)Nc3nc4cc(-c5cccc(Cl)c5)ccc4[nH]3)cn2n1` [Example 96], for which the IC50 is 0.328 µM. With `Cc1ccc2nc(C(=O)Nc3nc4cc(OCc5ccccc5)ccc4[nH]3)cn2n1` [Example 6] the figure was 0.244 µM; with `CC1(C)CCC(c2ccc3[nH]c(NC(=O)c4cn5nc(OC6CCC(O)CC6)ccc5n4)nc3c2)CC1` (stereo not shown) [Example 88], 0.476 µM.

These data come from patent US8450354B2, “Substituted imidazo[1,2-b]pyridazine derivatives, pharmaceutical compositions, and methods of use as β-secretase inhibitors” (High Point Pharmaceuticals, LLC, priority 2010, dated 2013).
